# Measured values published in paper PMC6627374, “Effects of the Pentapeptide P33 on Memory and Synaptic Plasticity in APP/PS1 Transgenic Mice: A Novel Mechanism Presenting the Protein Fe65 as a Target” (International Journal of Molecular Sciences, 2019).
# Where a SMILES comes first, the peptide text is derived from it.
# Experiments:
# Assay type in all cases: in vivo, mouse
# [1] = tested on: APP/PS1 mice and C57BL/6 wild-type (WT) mice; test: Morris water maze (MWM), spatial learning and memory; settings: for intersection area with vehicle group (bootstrap 2D contours): vehicle vs P33, 90% contours
# Protocol: (§1) For this study, three-month-old male and female WT and APP/PS1 mice (n = 37) were used. Four groups were defined: WT-vehicle (physiological saline) (male n = 4; female n = 6), WT-P33 (male n = 6; female n = 5), APP/PS1-vehicle (male n = 3; female n = 5), and APP/PS1-P33 (male n = 6; female n = 2). Animals were subjected to intraperitoneal (i.p.) injections of P33 (5 mg∙kg^−1) for five days per week, over a course of six months. The mice were kept in groups under constant temperature (23 ± 0.5 °C), lighting (12-h/12-h light/dark cycle, lights on at 7:00 a.m.), and humidity (~50%). Standard mouse chow and tap water were supplied ad libitum. All behavioral experiments were performed in the light period. Handling was done daily at the same time.
# The experiment lasted for five days, and was conducted on every occasion in the light period. Mice were tested twice every day when they were allowed to swim until they found the platform. […] Four different starting points were used during the experiment; starting points were changed randomly during the tests. Trajectories of the mice were recorded with a video camera fixed on the ceiling, equipped with the software EthoVision XT8 (Noldus Information Technology, The Netherlands, 2011). The tracking system calculated the time to reach the platform, swimming speed, length of the swimming path (distance), and percentage time spent in each of the four virtual quadrants during the trials.
# Behavioral data were analyzed by mixed ANOVA, followed by Fisher’s LSD post hoc tests for multiple comparisons. The classical and modified ANOVA data evaluation methods applied for the raw measurements could detect only some significant effects without explaining their positions. Convenient post hoc analysis methods, like Student’s t-statistics, need a Gaussian distribution of the analysis data. Additionally, only the probability of the false positive decision error can be set up, and the probability of the false negative decision error remains unknown. Therefore, we developed and used nonparametric statistics. The one-response variable data (swimming times) were used to generate a two-variable model: (1) the reciprocal of the slope of the fitted straight line between the swimming time and the days (its negative values close to zero indicate an improvement in the memory and learning functions of the mice from day to day); (2) swimming time data of the last day (closeness to zero indicates an effective learning process). The two variables were combined, and evaluating them together gave more reliable multiple statistical results. […]
# pT^668-APP = test: Western blot, pT^668-APP level in brain; settings: 5 mg∙kg^−1 i.p., five days per week, six months; HC and CTX
# Protocol: as §1
# (§2) Nine-month-old mice (three animals per group) were euthanized via cervical dislocation. […] To quantify the level of Aβ in the mice, we used a sandwich ELISA Kit (Innotest Amyloid-[…]) from Innogenetics (Gent, Belgium), following the instructions of the manufacturer. The absorbance values were measured at 450 nm on a 96-well plate reader (NOVOstar OPTIMA, BMG Labtech, Offenburg, Germany). […]
# (§3) The results of spine density and immunohistochemistry experiments were calculated with one-way ANOVA followed by Fisher’s LSD post hoc tests. […] Data were analyzed with SPSS (IBM SPSS Statistics 24), and were expressed as the mean ± standard error of the mean (SEM). […]
# Fe65 = test: Western blot, Fe65 level in brain; settings: APP/PS1 mice; 5 mg∙kg^−1 i.p., five days per week, six months; HC and CTX
# Protocol: as §1, §2, §3
compound,measurement,setting,value
C[C@@H](N)C(=O)N1CCC[C@@H]1C(=O)N[C@H](C)C(=O)N1CCC[C@@H]1C(=O)N[C@H](CCC(=O)O)C(N)=O [P33] (HELM PEPTIDE1{[dA].[dP].[dA].[dP].[dE].[am]}$$$$V2.0),permutation test of swimming times vs randomness (in words),"[1]; APP/PS1-P33, 50,000 resamples, 1/m and yend","significant improvement, as the randomness of the measurements was drastically decreased"
same,intersection area with vehicle group (bootstrap 2D contours),"[1]; APP/PS1 groups, % of total areas of both, 50,000 resamples",approximately 2%
same,"latency to find the platform, effect of P33 (in words)","[1]; APP/PS1 mice, 5 mg∙kg^−1 i.p., six months, MWM five days",seemed to have a positive effect on their learning abilities
same,intersection area with vehicle group (bootstrap 2D contours),"[1]; WT groups, % of total area of P33 treatment (vehicle 32%), 50,000 resamples",89%
same,"pT^668-APP level, effect of P33 (in words)",pT^668-APP,had no significant effect on the pT^668-APP level
same,"Fe65 level, effect of P33 (in words)",Fe65,could not be considerably changed by the treatment with P33
